Columns and labels:
Test in all cases: cells
LS-1034 = assay type: functional, cell-based, Homo sapiens; conditions: Homo sapiens, LS-1034
Description: SANGER: Inhibition of human LS-1034 cell growth in a cell viability assay.

SW684 = assay type: functional, cell-based, Homo sapiens; conditions: Homo sapiens, SW684; read-out: IC50;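 note: growth inhibition of human SW684 cells, measured by a cell viability assay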
Description: SANGER: Inhibition of human SW684 cell growth in a cell viability assay.

EW-18 = assay type: functional, cell-based, Homo sapiens; conditions: Homo sapiens, EW-18; read-out: IC50;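 note: growth inhibition of EW-18 cells, read out by a cell viability assay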
Description: SANGER: Inhibition of human EW-18 cell growth in a cell viability assay.

LB1047-RCC = assay type: functional, cell-based, Homo sapiens; conditions: Homo sapiens, LB1047-RCC;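 note: inhibition of cell growth, determined with a cell viability assay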
Description: SANGER: Inhibition of human LB1047-RCC cell growth in a cell viability assay.

OS-RC-2 = assay type: functional, cell-based, Homo sapiens; conditions: Homo sapiens, OS-RC-2;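 note: growth inhibition of human OS-RC-2 cells, measured by a cell viability assay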
Description: SANGER: Inhibition of human OS-RC-2 cell growth in a cell viability assay.

SNU-5 = assay type: functional, cell-based, Homo sapiens; conditions: Homo sapiens, SNU-5;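 note: cell viability readout used to measure growth inhibition in human NCI-SNU-5 cells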
Description: SANGER: Inhibition of human NCI-SNU-5 cell growth in a cell viability assay.

HH = assay type: functional, cell-based, Homo sapiens; conditions: Homo sapiens, HH
Description: SANGER: Inhibition of human HH cell growth in a cell viability assay.

COLO-320-HSR = assay type: functional, cell-based, Homo sapiens; conditions: Homo sapiens, COLO-320-HSR;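 note: growth inhibition of COLO-320-HSR cells, determined with a cell viability assay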
Description: SANGER: Inhibition of human COLO-320-HSR cell growth in a cell viability assay.

RS4-11 = assay type: functional, cell-based, Homo sapiens; conditions: Homo sapiens, RS4-11;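 note: growth inhibition of RS4-11 cells, read out by a cell viability assay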
Description: SANGER: Inhibition of human RS4-11 cell growth in a cell viability assay.

NCI-H23 = assay type: functional, cell-based, Homo sapiens; conditions: Homo sapiens, NCI-H23;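 note: cell viability assay measuring growth inhibition of NCI-H23 cells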
Description: SANGER: Inhibition of human NCI-H23 cell growth in a cell viability assay.

RCC10RGB = assay type: functional, cell-based, Homo sapiens; conditions: Homo sapiens, RCC10RGB;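 note: growth inhibition of human RCC10RGB cells, read out by a cell viability assay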
Description: SANGER: Inhibition of human RCC10RGB cell growth in a cell viability assay.

KE-37 = assay type: functional, cell-based, Homo sapiens; conditions: Homo sapiens, KE-37;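 note: growth inhibition of KE-37 cells, read out with a cell viability assay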
Description: SANGER: Inhibition of human KE-37 cell growth in a cell viability assay.

Lu-65 = assay type: functional, cell-based, Homo sapiens; conditions: Homo sapiens, Lu-65;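 note: growth inhibition of Lu-65 cancer cells, read out by a cell viability assay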
Description: SANGER: Inhibition of human LU-65 cell growth in a cell viability assay.

EKVX = assay type: functional, cell-based, Homo sapiens; conditions: Homo sapiens, EKVX;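 note: growth inhibition of human EKVX cells, read out with a cell viability assay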
Description: SANGER: Inhibition of human EKVX cell growth in a cell viability assay.

LAMA-84 = assay type: functional, cell-based, Homo sapiens; conditions: Homo sapiens, LAMA-84;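 note: growth inhibition of LAMA-84 cells, read out with a cell viability assay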
Description: SANGER: Inhibition of human LAMA-84 cell growth in a cell viability assay.

KURAMOCHI = assay type: functional, cell-based, Homo sapiens; conditions: Homo sapiens, KURAMOCHI;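 note: growth inhibition of KURAMOCHI cells, read out with a cell viability assay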
Description: SANGER: Inhibition of human KURAMOCHI cell growth in a cell viability assay.

LC-2-ad = assay type: functional, cell-based, Homo sapiens; conditions: Homo sapiens, LC-2-ad;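 note: growth inhibition of human LC-2-ad cells, read out with a cell viability assay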
Description: SANGER: Inhibition of human LC-2-ad cell growth in a cell viability assay.

RKO = assay type: functional, cell-based, Homo sapiens; conditions: Homo sapiens, RKO;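 note: growth inhibition of human RKO cells, read out with a cell viability assay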
Description: SANGER: Inhibition of human RKO cell growth in a cell viability assay.

C8166 = assay type: functional, cell-based, Homo sapiens; conditions: Homo sapiens, C8166;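 note: growth inhibition of human C8166 cells measured by a cell viability assay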
Description: SANGER: Inhibition of human C8166 cell growth in a cell viability assay.

L-363 = assay type: functional, cell-based, Homo sapiens; conditions: Homo sapiens, L-363
Description: SANGER: Inhibition of human L-363 cell growth in a cell viability assay.

A388 = assay type: functional, cell-based; conditions: Homo sapiens;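 note: growth inhibition of human A388 cells, read out with a cell viability assay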
Description: SANGER: Inhibition of human A388 cell growth in a cell viability assay.

AM-38 = assay type: functional, cell-based, Homo sapiens; conditions: Homo sapiens, AM-38;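 note: growth inhibition of AM-38 cells of human origin, read out by a cell viability assay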
Description: SANGER: Inhibition of human AM-38 cell growth in a cell viability assay.

LXF-289 cell line = assay type: functional, cell-based; conditions: Homo sapiens
Description: SANGER: Inhibition of human LXF-289 cell growth in a cell viability assay.

D-263MG = assay type: functional, cell-based, Homo sapiens; conditions: Homo sapiens, D-263MG
Description: SANGER: Inhibition of human D-263MG cell growth in a cell viability assay.

SF-126 = assay type: functional, cell-based, Homo sapiens; conditions: Homo sapiens, SF-126;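 note: growth inhibition of human SF126 cells, read out with a cell viability assay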
Description: SANGER: Inhibition of human SF126 cell growth in a cell viability assay.

LAN-6 = assay type: functional, cell-based, Homo sapiens; conditions: Homo sapiens, LAN-6;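 note: growth inhibition of LAN-6 cells, determined with a cell viability assay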
Description: SANGER: Inhibition of human LAN-6 cell growth in a cell viability assay.

NCI-H526 = assay type: functional, cell-based, Homo sapiens; conditions: Homo sapiens, NCI-H526;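 note: growth inhibition of the human NCI-H526 cell line, measured by a cell viability assay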
Description: SANGER: Inhibition of human NCI-H526 cell growth in a cell viability assay.

A4-Fuk = assay type: functional, cell-based, Homo sapiens; conditions: Homo sapiens, A4-Fuk;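 note: growth inhibition of A4-Fuk cells, read out by a cell viability assay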
Description: SANGER: Inhibition of human A4-Fuk cell growth in a cell viability assay.

NCI-H747 = assay type: functional, cell-based, Homo sapiens; conditions: Homo sapiens, NCI-H747;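 note: growth inhibition of human NCI-H747 cells, read out by a cell viability assay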
Description: SANGER: Inhibition of human NCI-H747 cell growth in a cell viability assay.

LS-123 = assay type: functional, cell-based, Homo sapiens; conditions: Homo sapiens, LS-123
Description: SANGER: Inhibition of human LS-123 cell growth in a cell viability assay.

CTV-1 = assay type: functional, cell-based, Homo sapiens; conditions: Homo sapiens, CTV-1;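 note: growth inhibition of the cell line, read out with a cell viability assay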
Description: SANGER: Inhibition of human CTV-1 cell growth in a cell viability assay.

NCI-H69 = assay type: functional, cell-based, Homo sapiens; conditions: Homo sapiens, NCI-H69;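 note: growth inhibition of the cell line, read out with a cell viability assay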
Description: SANGER: Inhibition of human NCI-H69 cell growth in a cell viability assay.

NCI-H82 = assay type: functional, cell-based, Homo sapiens; conditions: Homo sapiens, NCI-H82;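 note: growth inhibition of NCI-H82 cells, measured with a cell viability readout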
Description: SANGER: Inhibition of human NCI-H82 cell growth in a cell viability assay.

SH-4 = assay type: functional, cell-based; conditions: Homo sapiens;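 note: growth inhibition of SH-4 cells, read out with a cell viability assay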
Description: SANGER: Inhibition of human SH-4 cell growth in a cell viability assay.

HDLM-2 = assay type: functional, cell-based, Homo sapiens; conditions: Homo sapiens, HDLM-2;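 note: cell viability assay measuring suppression of HDLM-2 proliferation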
Description: SANGER: Inhibition of human HDLM-2 cell growth in a cell viability assay.

MS-1 = assay type: functional, cell-based, Homo sapiens; conditions: Homo sapiens, MS-1;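 note: growth inhibition of MS-1 cells, read out by cell viability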
Description: SANGER: Inhibition of human MS-1 cell growth in a cell viability assay.

LU-134-A = assay type: functional, cell-based, Homo sapiens; conditions: Homo sapiens, LU-134-A
Description: SANGER: Inhibition of human LU-134-A cell growth in a cell viability assay.

ES6 = assay type: functional, cell-based; conditions: Homo sapiens;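 note: growth inhibition of human ES6 cells, read out with a cell viability assay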
Description: SANGER: Inhibition of human ES6 cell growth in a cell viability assay.

QIMR-WIL = assay type: functional, cell-based, Homo sapiens; conditions: Homo sapiens, QIMR-WIL;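 note: growth inhibition of QIMR-WIL cells, read out with a cell viability assay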
Description: SANGER: Inhibition of human QIMR-WIL cell growth in a cell viability assay.

LU-139 = assay type: functional, cell-based, Homo sapiens; conditions: Homo sapiens, LU-139
Description: SANGER: Inhibition of human LU-139 cell growth in a cell viability assay.

JVM-3 = assay type: functional, cell-based, Homo sapiens; conditions: Homo sapiens, JVM-3;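 note: growth inhibition of human JVM-3 cells, read out with a cell viability assay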
Description: SANGER: Inhibition of human JVM-3 cell growth in a cell viability assay.

HAL-01 = assay type: functional, cell-based, Homo sapiens; conditions: Homo sapiens, HAL-01;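 note: growth inhibition of human HAL-01 cells, read out with a cell viability assay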
Description: SANGER: Inhibition of human HAL-01 cell growth in a cell viability assay.

NCI-H1650 = assay type: functional, cell-based, Homo sapiens; conditions: Homo sapiens, NCI-H1650;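 note: growth inhibition of human NCI-H1650 cells measured by a cell viability assay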
Description: SANGER: Inhibition of human NCI-H1650 cell growth in a cell viability assay.

KY821 = assay type: functional, cell-based, Homo sapiens; conditions: Homo sapiens, KY821;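 note: growth inhibition of human KY821 cells, read out by a cell viability assay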
Description: SANGER: Inhibition of human KY821 cell growth in a cell viability assay.

NKM-1 = assay type: functional, cell-based, Homo sapiens; conditions: Homo sapiens, NKM-1;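 note: growth inhibition of NKM-1 cells, read out with a cell viability assay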
Description: SANGER: Inhibition of human NKM-1 cell growth in a cell viability assay.

KG-1 = assay type: functional, cell-based, Homo sapiens; conditions: Homo sapiens, KG-1;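 note: growth inhibition of KG-1 cells, read out by a cell viability assay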
Description: SANGER: Inhibition of human KG-1 cell growth in a cell viability assay.

JVM-2 = assay type: functional, cell-based, Homo sapiens; conditions: Homo sapiens, JVM-2;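 note: growth inhibition of JVM-2 cells determined by a cell viability assay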
Description: SANGER: Inhibition of human JVM-2 cell growth in a cell viability assay.

ES3 = assay type: functional, cell-based, Homo sapiens; conditions: Homo sapiens, ES3;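 note: growth inhibition of ES3 cells, read out with a cell viability assay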
Description: SANGER: Inhibition of human ES3 cell growth in a cell viability assay.

**Q.** With `CC(C)C[C@H](NC(=O)[C@H](Cc1ccccc1)NC(=O)c1cnccn1)B(O)O` [BORTEZOMIB] as the compound, how does the IC50 (LS-1034) read?
**A.** > 20 nM

**Q.** And the IC50 (SW684)?
**A.** 0.821 nM

**Q.** What about the IC50 (EW-18) of the same compound?
**A.** 18 nM

**Q.** What about the IC50 (LB1047-RCC) of the same compound?
**A.** 2.57 nM

**Q.** What about the IC50 (OS-RC-2) of the same compound?
**A.** 0.44 nM

**Q.** What about the IC50 (SNU-5) of the same compound?
**A.** 5.17 nM

**Q.** What about the IC50 (HH) of the same compound?
**A.** 2.13 nM

**Q.** What about the IC50 (COLO-320-HSR) of the same compound?
**A.** 3.92 nM

**Q.** And the IC50 (RS4-11)?
**A.** > 20 nM

**Q.** And the IC50 (NCI-H23)?
**A.** 12.1 nM

**Q.** And the IC50 (RCC10RGB)?
**A.** 3.93 nM

**Q.** And the IC50 (KE-37)?
**A.** 2.13 nM

**Q.** And the IC50 (Lu-65)?
**A.** 5.84 nM

**Q.** And the IC50 (EKVX)?
**A.** 2.14 nM

**Q.** And the IC50 (LAMA-84)?
**A.** 3.49 nM

**Q.** And the IC50 (KURAMOCHI)?
**A.** 1.72 nM

**Q.** And the IC50 (LC-2-ad)?
**A.** 1.08 nM

**Q.** And the IC50 (RKO)?
**A.** 1.06 nM

**Q.** What about the IC50 (C8166) of the same compound?
**A.** > 20 nM

**Q.** And the IC50 (L-363)?
**A.** 7.7 nM

**Q.** What about the IC50 (A388) of the same compound?
**A.** 0.356 nM

**Q.** And the IC50 (AM-38)?
**A.** > 20 nM

**Q.** And the IC50 (LXF-289 cell line)?
**A.** 0.269 nM

**Q.** What about the IC50 (D-263MG) of the same compound?
**A.** 0.807 nM

**Q.** What about the IC50 (SF-126) of the same compound?
**A.** 0.701 nM

**Q.** What about the IC50 (LAN-6) of the same compound?
**A.** 2.05 nM

**Q.** What about the IC50 (NCI-H526) of the same compound?
**A.** > 20 nM

**Q.** And the IC50 (A4-Fuk)?
**A.** 0.623 nM

**Q.** What about the IC50 (NCI-H747) of the same compound?
**A.** 0.539 nM

**Q.** And the IC50 (LS-123)?
**A.** 2.02 nM

**Q.** What about the IC50 (CTV-1) of the same compound?
**A.** 2.8 nM

**Q.** And the IC50 (NCI-H69)?
**A.** 1.54 nM

**Q.** And the IC50 (NCI-H82)?
**A.** > 20 nM

**Q.** And the IC50 (SH-4)?
**A.** 0.173 nM

**Q.** What about the IC50 (HDLM-2) of the same compound?
**A.** > 20 nM

**Q.** And the IC50 (MS-1)?
**A.** > 20 nM

**Q.** What about the IC50 (LU-134-A) of the same compound?
**A.** 7.39 nM

**Q.** What about the IC50 (ES6) of the same compound?
**A.** < 0.0781 nM

**Q.** And the IC50 (QIMR-WIL)?
**A.** 0.889 nM

**Q.** And the IC50 (LU-139)?
**A.** 5.13 nM

**Q.** And the IC50 (JVM-3)?
**A.** 13 nM

**Q.** What about the IC50 (HAL-01) of the same compound?
**A.** 1.18 nM

**Q.** And the IC50 (NCI-H1650)?
**A.** > 20 nM

**Q.** What about the IC50 (KY821) of the same compound?
**A.** > 20 nM

**Q.** And the IC50 (NKM-1)?
**A.** 2 nM

**Q.** What about the IC50 (KG-1) of the same compound?
**A.** 7.94 nM

**Q.** And the IC50 (JVM-2)?
**A.** 7.28 nM

**Q.** What about the IC50 (ES3) of the same compound?
**A.** > 20 nM

**Q.** How did the IC50 (LS-1034) turn out when `Nc1ccccc1NC(=O)c1ccc(CNC(=O)OCc2cccnc2)cc1` [ENTINOSTAT] was run?
**A.** > 5000 nM

**Q.** What about the IC50 (SW684) of the same compound?
**A.** > 5000 nM

**Q.** And the IC50 (EW-18)?
**A.** > 5000 nM

**Q.** What about the IC50 (LB1047-RCC) of the same compound?
**A.** 1630 nM

**Q.** And the IC50 (OS-RC-2)?
**A.** 968 nM

**Q.** What about the IC50 (SNU-5) of the same compound?
**A.** > 5000 nM

**Q.** What about the IC50 (HH) of the same compound?
**A.** 990 nM

**Q.** And the IC50 (COLO-320-HSR)?
**A.** 2860 nM

**Q.** What about the IC50 (RS4-11) of the same compound?
**A.** > 5000 nM

**Q.** What about the IC50 (NCI-H23) of the same compound?
**A.** > 5000 nM

**Q.** What about the IC50 (RCC10RGB) of the same compound?
**A.** > 5000 nM

**Q.** What about the IC50 (KE-37) of the same compound?
**A.** 643 nM

**Q.** What about the IC50 (Lu-65) of the same compound?
**A.** 4150 nM

**Q.** What about the IC50 (EKVX) of the same compound?
**A.** > 5000 nM

**Q.** And the IC50 (LAMA-84)?
**A.** 776 nM

**Q.** And the IC50 (KURAMOCHI)?
**A.** 1770 nM

**Q.** And the IC50 (LC-2-ad)?
**A.** 537 nM

**Q.** What about the IC50 (RKO) of the same compound?
**A.** 3770 nM

**Q.** And the IC50 (C8166)?
**A.** > 5000 nM

**Q.** What about the IC50 (L-363) of the same compound?
**A.** 567 nM

**Q.** And the IC50 (A388)?
**A.** 1520 nM

**Q.** What about the IC50 (AM-38) of the same compound?
**A.** > 5000 nM

**Q.** What about the IC50 (LXF-289 cell line) of the same compound?
**A.** 959 nM

**Q.** And the IC50 (D-263MG)?
**A.** > 5000 nM

**Q.** What about the IC50 (SF-126) of the same compound?
**A.** 2330 nM

**Q.** And the IC50 (LAN-6)?
**A.** 2020 nM

**Q.** And the IC50 (NCI-H526)?
**A.** 635 nM

**Q.** And the IC50 (A4-Fuk)?
**A.** 1150 nM

**Q.** What about the IC50 (NCI-H747) of the same compound?
**A.** 3050 nM

**Q.** What about the IC50 (LS-123) of the same compound?
**A.** 2350 nM

**Q.** And the IC50 (CTV-1)?
**A.** 1270 nM

**Q.** What about the IC50 (NCI-H69) of the same compound?
**A.** 801 nM

**Q.** And the IC50 (NCI-H82)?
**A.** 1630 nM

**Q.** What about the IC50 (SH-4) of the same compound?
**A.** 1020 nM

**Q.** What about the IC50 (HDLM-2) of the same compound?
**A.** 1680 nM

**Q.** What about the IC50 (MS-1) of the same compound?
**A.** > 5000 nM

**Q.** And the IC50 (LU-134-A)?
**A.** 571 nM

**Q.** And the IC50 (ES6)?
**A.** 964 nM

**Q.** What about the IC50 (QIMR-WIL) of the same compound?
**A.** 683 nM

**Q.** And the IC50 (LU-139)?
**A.** 335 nM

**Q.** And the IC50 (JVM-3)?
**A.** > 5000 nM

**Q.** And the IC50 (HAL-01)?
**A.** 1170 nM

**Q.** And the IC50 (NCI-H1650)?
**A.** > 5000 nM

**Q.** What about the IC50 (KY821) of the same compound?
**A.** > 5000 nM

**Q.** And the IC50 (NKM-1)?
**A.** 109 nM

**Q.** What about the IC50 (KG-1) of the same compound?
**A.** 1620 nM

**Q.** And the IC50 (JVM-2)?
**A.** > 5000 nM

**Q.** And the IC50 (ES3)?
**A.** > 5000 nM

Reference: ChEMBL document CHEMBL1201861, “Genomics of Drug Sensitity in Cancer screening data, Wellcome Trust Sanger Institute”
